Test results published in publication PMC12057336 (Antimicrobial Agents and Chemotherapy, 2025).

Legend:
[1] = Pharmacokinetics (plasma, urine) of linezolid and metabolites after i.g. or i.v. linezolid in control, CCl4-induced and 5/6 Nx rats; conditions: for AUC(0-inf): AUC0-∞
From the text: The control group rats were intraperitoneally injected with equal volumes of soybean oil. […] The upper and lower poles of the left kidney were removed under urethane anesthesia (1 g/kg; administered by i.p. injection). One week later, the right kidney was completely excised. Rats in the control group underwent a sham operation ([35]). Serum creatinine (CREA), blood urea nitrogen (BUN), aspartate aminotransferase (AST), alanine aminotransferase (ALT), alkaline phosphatase (ALP), lactate dehydrogenase (LDH), and total bilirubin (TBIL) levels were measured using commercial kits (Shanghai Enzyme-linked Biotechnology Co., Ltd., Shanghai, China) according to the protocols described by the manufacturer before pharmacokinetic experiments.
The rats were first divided into two groups: i.v. or i.g. administration groups. These two groups were further divided into the following four subgroups (n = 5): soybean oil-treated control rats, CCl4-induced rats, sham-operated control rats, and 5/6 Nx rats. […] Blood samples (200 µL) were collected from the retro-orbital venous plexus into heparinized tubes at 0 (pre-dose), 0.25, 0.5, 0.75, 1, 2, 3, 4, 6, 8, 12, and 24 h after i.g. administration, and at 0 (pre-dose), 0.083, 0.25, 0.5, 0.75, 1, 2, 3, 4, 6, 8, 12, and 24 h after i.v. administration. Plasma samples were separated by centrifugation at 6,000 × g for 5 min at 4°C and stored at −80°C until further analysis using HPLC.
Chromatographic separation was performed using the SinoPak BEH T-C18 column (4.6 mm × 150 mm, 5 µm, Hi-tech Zone, China) at 35°C. A photodiode array detector was set at a wavelength of 254 nm. The mobile phase consisted of 0.1% (vol/vol) formic acid in water (A) and acetonitrile (B). The gradient conditions were as follows: 0–4.0 min, 14%–86% B; 4.0–5.0 min, […]; 5.0–5.7 min, return to 14% B; 5.7–8.0 min, equilibrium. The flow rate was 1.0 mL/min.
Plasma and tissue homogenate samples (100 µL) were mixed with 10 µL of IS (50.0 mg/L) and 200 µL of acetonitrile, followed by vortex-mixing for 3 min. The mixture was centrifuged at 15,000 × g for 15 min at 4°C. Then, 5 µL of the supernatant was analyzed. The urine samples were diluted and directly injected for measurement.
The area under the plasma concentration-time curve from 0 to infinity (AUC0-∞), time to maximum concentration (tmax), Cmax, t1/2, CL, and Vd were calculated by non-compartmental model analysis using the Phoenix 8.1.0 WinNonlin software (Pharsight Corp, Princeton, NJ, USA). The renal clearance (CLr), in vitro hepatic clearance (CLint, in vitro), and bioavailability (F) were calculated using the following equations:
F (%) = Div×AUC0−∞, ig/Dig×AUC0−∞, iv
Atotal is the total cumulative amount excreted in urine over 24 h. D is the administered dose. The scale factor is 4,680 (10^6 cells/kg). All data are expressed as mean ± standard deviation (SD). Statistical analysis was performed using Student’s two-tailed unpaired t-test or nonparametric Mann-Whitney U test with SPSS Statistics 19.0 (SPSS Inc., Chicago, IL, USA). Statistical significance was set at P < 0.05.

OAT1 = conditions: cited from earlier work
OAT3 = conditions: cited from earlier work
OATP1B3 = conditions: cited from earlier work
MATE2-K = conditions: cited from earlier work
[2] = Sprague-Dawley, rat, in vivo, iv
[3] = Sprague-Dawley, rat, in vivo, po, 63 mg/kg

In the case of CC(=O)NC[C@H]1CN(c2ccc(N3CCOCC3)c(F)c2)C(=O)O1 [Linezolid], the “change of cumulative urinary excretion rate” value ([1]; 5/6 Nx rats vs control, P < 0.05) is reported as “significantly decreased”, the “change of cumulative urinary excretion rate” value ([1]; CCl4-induced rats) is reported as “no significant changes” and the “decrease of CLr in comparison to sham-operated control rats” value ([1]; Sprague-Dawley, rat, in vivo) is reported as 50.0%. For the same compound, the “decrease of CL in comparison to soybean oil-treated control rats” value [1, 2] was 27.0%, the “decrease of CLr in comparison to sham-operated control rats” value [1, 2] was 66.7% and the AUC(0-inf) ([1]; Sprague-Dawley, rat, in vivo, iv, 25 mg/kg) was 69.3 ± 8.67 µg·h/mL. For the same compound, the clearance ([1]; Sprague-Dawley, rat, in vivo, iv, 25 mg/kg, CL) was 6.17 mL/min/kg, the Vd ([1]; Sprague-Dawley, rat, in vivo, iv, 25 mg/kg, Vd) was 0.63 ± 0.05 L/kg and the “decrease of CL in comparison to soybean oil-treated control rats” value ([1]; Sprague-Dawley, rat, in vivo, po) was 13.8%. The Tmax [1, 3] was 54 ± 8.4 min, the tmax [1, 3] was 1.0 h and the AUC(0-inf) [1, 3] was 220 ± 27.6 µg·h/mL. For the same compound, the CL renal ([1]; Sprague-Dawley, rat, in vivo, po, 63 mg/kg, CLr) was 0.333 mL/min/kg, the Cmax ([1]; Sprague-Dawley, rat, in vivo, po, 63 mg/kg, Cmax) was 35300 ± 1100 ng/mL and the half-life ([1]; Sprague-Dawley, rat, in vivo, po, 63 mg/kg, t1/2) was 110 ± 16.2 min. The “inhibitor of OAT1” value (OAT1) was “inhibitor”, the “inhibitor of OAT3” value (OAT3) was “inhibitor” and the “inhibitor of OATP1B3” value (OATP1B3) was “inhibitor”. The “inhibitor of MATE2-K” value (MATE2-K) was “not an inhibitor”.
